From US8163803B2 (Fundação Oswaldo Cruz—FIOCRUZ, priority 2004, dated 2012)

Assays:
[1] = test system: cutaneous sites of the dorsal region of adult Wistar rats; experiment: Local anesthetic activity, intradermal injection in dorsal skin, response to mechanical stimulation; assay type: in vivo; conditions: for time of anesthesia compared with lidocaine: doses from 0.5 to 4 μMol/site
Procedure: Female and male Wistar rats, weighing between 200 and 250 g, they came from Oswaldo Cruz Foundation's Center of Laboratory Animal Raising were used. The procedures involving the animals were examined and approved by Oswaldo Cruz Foundation's Committee of Animal Ethics (CEUA-FIOCRUZ, License number 00085-02). After brief anesthesia by exposure to the atmosphere enriched with […] animals were trichotomized dorsal region, where the […] injections with substances for test were performed; doses varied from 0.5 to 4 μMol/site, and vehicule (NaCl 0.9%) (negative control), the final volume was 50 μl. Each animal took six injections and four animals were used for each tested substance. The application points were mechanically estimulated with a tweezer in order to evaluate the integrity of sensitiveness. The site was considered not to be anesthesized whenever after the mechanical stimulation it was observed a local retraction of the skin, according to what had been previously reported. The evaluations began 10 minutes after intradermal injections had been taken, which continued every five minutes until it was obtained the cutaneous retraction response. The values (average±standard error of the mean, SEM) were expressed in terms of “Time of Anesthesia” in minutes.

[2] = test system: sensitized experimental animals; experiment: Pulmonary eosinophil infiltrate after ovoalbumin aerosol challenge, bronchoalveolar lavage count; assay type: in vivo; conditions: 5% aerosol, 30 min, with ovoalbumin 1% plus 3 aerosolizations every 3 h; lavage 24 h after challenge
Procedure: The animals were sensitized through a cutaneous injection of a mixture with 50 μg ovoalbumin and 5 mg Al(OH)3, and challenged with ovoalbumin (1%) aerosol for 30 min 14 days afterwards, according to what was previously described. In order to avoid death of animals by anaphylatic asphyxia, all of them were treated intraperitonially with the anti-histaminic difenidramine (30 mg/kg) 30 minutes before being challenged.
Bronchoalveolar Lavage and Eosinophils Counting
All the animals were anesthesized terminally through an intraperitonial injection of pentobarbital (200 mg/kg) 24 h after the antigenic challenge, to wash the bronchoalveolar space according to the techniques previously described. Total leukocyte count were done after dilution of bronchoalveolar lavage samples in Turk liquid and counting in the Neubauer chamber with the assistance of direct-light microscopy. The differential eosinophil count was done also under direct-light microscopy, after centrifugation of samples of the lavage as well as its exposure to specific dyestuff (May-Grunwald-Giemsa dye).
The averages± standard error of the mean of the groups investigated were analyzed based on statistics through the test of variance analysis (ANOVA), followed by the Newman-Keuls-Student test.
Values, expressed in terms of “number of eosinophils×10^6/lavage” are presented as average±SEM in at least 7 animals. In the negative control group, animals previously sensitized were artificially-challenged through exposure to sterile saline (NaCl, 0.9%) aerosol. […] “*” represents the difference statistically significant (P<0.05), when the group treated and the positive control group were compared.

[3] = test system: Na^+ currents in GH3 cells; experiment: Tonic block of Na+ currents in GH3 cells, whole cell patch clamp; assay type: cell-based, Rat; conditions: for IC50: GH3 cells, holding potential −80 mV to +60 mV step pulse, read-out: IC50, blockade of Na+ currents
Procedure: Ion channel currents were recorded by means of a patch clamp technique. The cells cultured on the cover glass were placed in a chamber fixed to a microscope stage and continuously perfused with extracellular Saline (A) solution (in mM); 150 NaCl, 5 KCl, 1 MgCl2, 0.01 CaCl2, 1 EGTA, 10 HEPES, 2 BaCl2, 0.1 CdCl2, pH 7.4 at room temperature (22-25° C.) adjusted with NaOH. The cells were observed using phase contrast mode under an inverted microscope (Axiovert 100, Carl Zeiss, Oberkochem, D Germany). Tight-seal (>10 GΩ) whole cell voltage-clamp recordings were performed with an Axopatch-1D amplifier (Axon Instruments, San Mateo, Calif.). […] Fifteen minutes after rupture of the patch membrane, we started to record ion channel currents. Pulse protocols and data acquisition were controlled by Digidata 1320 interface (Axon Instruments, Palo Alto, Calif.), and acquired on a personal computer using Clampex 9 software. The Na^+ current recordings were filtered at 1 kHz and sampled at 8 kHz. About 26% of series resistance was electronically compensated. Drugs were applied to the recording chamber by gravity. Perfusion rate was maintained at 0.8-1.1 ml/min and bath volume was of 50 μl. […] Voltage-gated Na^+ currents were recorded from these cells in the presence or absence of treatment.

patients = conditions: long-term treatment, nebulized; cited from earlier work

Compound	time of anesthesia compared with lidocaine [1]	blocking the accumulation of eosinophils in the bronchoalveolar area [2]	IC50 [3] [mM]	50% inhibitory concentration, times higher than lidocaine ([3]; ratio to lidocaine IC50) [times]	Time of Anesthesia ([1]; 4 μMol/site intradermal, n=4, average±SEM) [min]	patients with relief of asthma symptoms and diminished dependency on steroidal anti-inflammatory treatment (patients)
CCN(CC)CC(=O)Nc1cccc(C)c1C [JM23-1, 2-dyethylamine-2′,3′-acetoxylidide]	significantly inferior	–	–	–	–	–
CCN(CC)CC(=O)Nc1ccc(C)cc1C [JM24-1, 2-dyethylamine-2′,4′-acetoxylidide]	significantly inferior	equipotent to lidocaine	5.2	29	–	–
CCN(CC)CC(=O)Nc1c(C)cccc1C [Lidocaine, 1-(2-(dyethylamine)N-dymethylfenyl)-acetamide, reference compound]	–	clearly sensitive to lidocaine treatment	0.18	–	168 ± 3	20 out of 24
